Test results: patent US4226877A, “Pyrazoles active in the central nervous system” (Abbott Laboratories, priority 1979, dated 1980)
Like-named read-outs stand apart in the source and are kept apart here.

Legend:
[1] = test system: methamphetamine-induced hyperactivity; assay: Rat methamphetamine antagonism test; format: in vivo, Male, Long-Evans, black hooded rats; settings: for ED50: Rattus norvegicus; for % Change From Placebo Control: methamphetamine 1 mg/kg i.p. one hour later
Procedure: The second test for identifying potential antipsychotic properties was the rat methamphetamine antagonism test.
[…] Three rats were tested at each dose level. Placebo controls received a volume dose of the 0.5% carboxymethylcellulose vehicle. One hour after drug administration, the animals received methamphetamine at an intraperitoneal dose of 1 mg/kg and were placed in individual test chambers equipped with photocells (Lehigh Valley, Model 1497). Antagonism of methamphetamine-induced hyperactivity was recorded as digital counts received from the photocells at one and two hour intervals.
The drug data were compared to placebo control values to identify statistically significant differences using a one-way analysis of variance computer program. ED50's were calculated by the method of Litchfield and Wilcoxin (J. Pharmacol. Exper. Therap.: 96:99, 1949).

[2] = test system: brain level of homovanillic acid (HVA); assay: Effect of drug compounds on brain level of homovanillic acid (HVA) in rats; format: in vivo, male Long Evans rats; settings: brains (minus cerebella) removed two or three hours later, control = 1
Procedure: In testing for the effectiveness of the present drug compounds on the brain level of homovanillic acid (HVA), the drugs were administered intraperitoneally to male Long Evans rats (Simonsen) usually as aqueous solutions but in certain cases as suspensions in 0.5% methocel in 0.9% saline. The standard testing dose was […] body weight. The test and control groups consisted of 3-5 and 5 animals, respectively. The analyses were performed on brains (minus cerebella) removed two or three hours later. In the analyses, standard extraction and fluorimetric methods were used.
Antipsychotic agents increase the synthesis and release of dopamine which is converted to HVA. The HVA level is therefore a measure of dopamine release.

[3] = oral, calculated by the method of Litchfield and Wilcoxin, read-out: ED50
[4] = Dose 0.15 (moles/kg body weight), intraperitoneal

| Structure (SMILES) | ED50 [1, 3] | % Change From Placebo Control ([1]; oral dose 5 mg/kg) | % Change From Placebo Control ([1]; oral dose 20 mg/kg) | % Change From Placebo Control ([1]; oral dose 80 mg/kg) | HVA Level; Compound : Control Ratio [2, 4] | ED50 ([1]; po) | % Change From Placebo Control ([1]; oral dose 10 mg/kg) | HVA Level; Compound : Control Ratio ([2]; Dose 0.03, intraperitoneal) |
| --- | --- | --- | --- | --- | --- | --- | --- | --- |
| CCN1CCCC1CNC(=O)c1cc(S(N)(=O)=O)ccc1OC (centres unmarked) [Sulpiride, reference compound] | > 80 mg/kg | +27% | +21% | 0% | 3.0 |  |  |  |
| CCN1CCCC1CNC(=O)c1c(C(C)C)nn(C)c1OC (centres unmarked) [III, N[(1-Ethyl-2-pyrrolidinyl)methyl]-3-isopropyl-5-methoxy-1-methylpyrazole 4-carboxamide] | > 80 mg/kg | -31% | -33% | -12% | 1.0 |  |  |  |
| CCN1CCCC1CNC(=O)c1c(C)nn(-c2ccccc2)c1OC (centres unmarked) [V, N-[(1-Ethyl-2-pyrrolidinyl)methyl]-5-methoxy-3-methyl-1-phenyl pyrazole-4-carboxamide] | 23.5 mg/kg | -23% | -32% | -81% | 3.3 |  |  |  |
| CCN1CCCC1CNC(=O)c1c(C)nn(C)c1OC (centres unmarked) [I, N-[(1-ethyl-2-pyrrolidinyl)methyl]-5-methoxy-1,3-dimethylpyrazole-4-carboxamide] | 44 mg/kg | -9% | -35% | -60% | 4.0 |  |  |  |
| CCN1CCCC1CNC(=O)c1c(C)nn(C(C)C)c1OC (centres unmarked) [II, N-[(1-Ethyl-2-pyrrolidinyl)methyl]-1-isopropyl-5-methoxy-3-methylpyrazole-4-carboxamide] | > 80 mg/kg | -16% | -13% | -16% | 1.8 |  |  |  |
| CCN1CCCC1CNC(=O)c1c(C)nn(C(C)C)c1O (centres unmarked) [IV] | > 80 mg/kg | +35% | +28% | -18% | 2.2 |  |  |  |
| CN(C)CCCN1c2ccccc2Sc2ccc(Cl)cc21 [Chlorpromazine, reference compound] |  | +10% | -74% |  |  | 15 mg/kg | -40% | 3.9 |
